Laboratory results reported in patent publication US20250114345A1, “COMPOUNDS AND COMPOSITIONS AS CBP/P300 DEGRADERS AND USES THEREOF” (Oncopia Therapeutics, Inc. d/b/a/ SK Life Science Labs, priority 2023, published 2025).

Target: T1, p300 (Homo sapiens, UniProt Q09472)
T1 construct: host or cells: A549 P300 HiBit cells
Experiment: P300 degradation, HiBit technology in A549 P300 HiBit cells (2 h)
Format: cell-based
Conditions: 2 hrs post treatment; for Dmax: A549, A549 P300 HiBit cells; for DC50: A549 P300 HiBit cells
How it was run: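 HiBiT knock-in A549 cells received compound in serial dilution at 37 °C under 5% CO2. Remaining tagged protein was quantified by lytic HiBiT luminescence after 10 min shaking at room temperature, yielding potency and maximal degradation.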

T1 sequence (Q09472 whole entry): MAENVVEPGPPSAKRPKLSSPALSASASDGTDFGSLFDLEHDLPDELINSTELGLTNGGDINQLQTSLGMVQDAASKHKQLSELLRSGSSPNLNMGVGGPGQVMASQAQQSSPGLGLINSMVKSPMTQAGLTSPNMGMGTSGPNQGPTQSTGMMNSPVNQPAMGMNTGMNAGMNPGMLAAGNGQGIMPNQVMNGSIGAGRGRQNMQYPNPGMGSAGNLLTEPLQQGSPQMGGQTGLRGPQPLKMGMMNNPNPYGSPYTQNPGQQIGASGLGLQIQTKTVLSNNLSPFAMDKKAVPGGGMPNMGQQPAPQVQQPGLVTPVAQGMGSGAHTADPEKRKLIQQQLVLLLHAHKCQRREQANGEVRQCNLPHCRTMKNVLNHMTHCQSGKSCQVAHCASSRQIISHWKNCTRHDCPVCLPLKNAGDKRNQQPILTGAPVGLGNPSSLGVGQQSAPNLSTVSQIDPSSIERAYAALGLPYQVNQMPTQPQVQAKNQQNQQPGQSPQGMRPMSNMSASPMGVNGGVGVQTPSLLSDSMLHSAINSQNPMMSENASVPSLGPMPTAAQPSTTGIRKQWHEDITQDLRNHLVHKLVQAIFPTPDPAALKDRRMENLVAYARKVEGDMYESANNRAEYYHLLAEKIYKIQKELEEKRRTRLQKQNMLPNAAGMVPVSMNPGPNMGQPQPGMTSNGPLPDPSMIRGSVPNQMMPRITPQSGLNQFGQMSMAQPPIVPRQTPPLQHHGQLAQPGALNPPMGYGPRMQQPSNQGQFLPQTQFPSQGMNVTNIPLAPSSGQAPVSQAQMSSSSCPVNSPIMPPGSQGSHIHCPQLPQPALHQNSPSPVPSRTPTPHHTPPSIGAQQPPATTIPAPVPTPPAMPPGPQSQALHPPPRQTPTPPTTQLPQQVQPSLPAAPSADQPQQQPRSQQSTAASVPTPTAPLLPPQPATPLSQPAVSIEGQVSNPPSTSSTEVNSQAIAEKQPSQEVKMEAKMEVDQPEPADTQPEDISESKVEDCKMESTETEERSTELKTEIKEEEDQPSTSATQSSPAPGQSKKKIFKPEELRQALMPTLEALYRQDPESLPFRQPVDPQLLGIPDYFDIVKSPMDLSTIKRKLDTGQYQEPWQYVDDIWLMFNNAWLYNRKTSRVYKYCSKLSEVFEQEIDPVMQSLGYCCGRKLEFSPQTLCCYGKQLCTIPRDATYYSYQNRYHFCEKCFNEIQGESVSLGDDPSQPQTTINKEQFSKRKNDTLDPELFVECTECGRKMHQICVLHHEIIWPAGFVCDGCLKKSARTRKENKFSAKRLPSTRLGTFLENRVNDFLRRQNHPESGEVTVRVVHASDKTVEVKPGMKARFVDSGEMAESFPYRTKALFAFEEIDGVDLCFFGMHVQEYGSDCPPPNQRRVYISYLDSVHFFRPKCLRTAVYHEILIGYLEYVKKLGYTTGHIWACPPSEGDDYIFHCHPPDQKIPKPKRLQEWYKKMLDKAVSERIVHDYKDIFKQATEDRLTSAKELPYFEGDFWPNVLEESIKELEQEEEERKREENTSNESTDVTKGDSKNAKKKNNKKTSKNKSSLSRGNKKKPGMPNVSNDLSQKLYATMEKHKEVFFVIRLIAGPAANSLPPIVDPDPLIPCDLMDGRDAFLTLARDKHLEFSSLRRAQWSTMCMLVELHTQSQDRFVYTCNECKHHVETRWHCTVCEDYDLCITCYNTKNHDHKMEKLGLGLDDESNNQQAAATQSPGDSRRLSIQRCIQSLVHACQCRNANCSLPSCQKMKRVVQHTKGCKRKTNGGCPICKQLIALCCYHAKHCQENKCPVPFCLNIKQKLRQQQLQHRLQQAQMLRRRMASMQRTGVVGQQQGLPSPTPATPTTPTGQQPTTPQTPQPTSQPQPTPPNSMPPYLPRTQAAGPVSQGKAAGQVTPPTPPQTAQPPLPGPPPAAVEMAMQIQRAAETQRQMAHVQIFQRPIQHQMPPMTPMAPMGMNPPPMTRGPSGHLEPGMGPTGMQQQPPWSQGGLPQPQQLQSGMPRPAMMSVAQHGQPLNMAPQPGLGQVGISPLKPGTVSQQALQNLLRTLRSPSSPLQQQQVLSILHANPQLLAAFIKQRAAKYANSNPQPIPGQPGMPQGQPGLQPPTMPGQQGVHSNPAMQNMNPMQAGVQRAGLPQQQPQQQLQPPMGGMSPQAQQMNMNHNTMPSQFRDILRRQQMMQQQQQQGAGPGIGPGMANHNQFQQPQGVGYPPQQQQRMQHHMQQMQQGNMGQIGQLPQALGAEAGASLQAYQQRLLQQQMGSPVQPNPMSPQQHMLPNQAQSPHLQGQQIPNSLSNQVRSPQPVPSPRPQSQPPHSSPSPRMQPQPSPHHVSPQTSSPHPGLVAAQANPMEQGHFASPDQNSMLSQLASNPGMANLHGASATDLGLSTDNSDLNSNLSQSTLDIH

SMILES | Dmax | DC50
CC(C#Cc1ccc2occ(C3CCC(=O)NC3=O)c2c1)NC(=O)c1ccc(-c2ncc(N(C)c3cc(C(C)C)c4c(c3)n(C)c(=O)n4C)cn2)cn1 (stereo not shown) [Example A105, N-(4-(3-(2,6-dioxo-piperidin-3-yl)benzofuran-5-yl)but-3-yn-2-yl)-5-(5-((7-isopropyl-1,3-dimethyl-2-oxo-2,3-dihydro-1H-benzo [d]imidazol-5-yl)(methyl)amino)pyrimidin-2-yl)picolinamide] | < 20% | > 1000 nM
CC(C)c1cc(N(C)c2cnc(-c3ccc(C(=O)NCC#Cc4ccc5occ(C6CCC(=O)NC6=O)c5c4)nc3)nc2)cc2c1n(C)c(=O)n2C (stereo not shown) [Example A106, N-(3-(3-(2,6-dioxo-piperidin-3-yl)benzofuran-5-yl)prop-2-yn-1-yl)-5-(5-((7-isopropyl-1,3-dimethyl-2-oxo-2,3-dihydro-1H-benzo [d]imidazol-5-yl)(methyl)amino)pyrimidin-2-yl)picolinamide] | > 80% | 1 to 9.9 nM
Cc1cc(-c2ncc(N(C)c3cc(C4CCN(C)CC4)c4c(c3)n(C)c(=O)n4C)cn2)cnc1C(=O)NCC#Cc1ccc2occ(C3CCC(=O)NC3=O)c2c1 (stereo not shown) [Example A112, 5-(5-((1,3-dimethyl-7-(1-methylpiperidin-4-yl)-2-oxo-2,3-dihydro-1H-benzo [d]imidazol-5-yl)(methyl)amino)pyrimidin-2-yl)-N-(3-(3-(2,6-dioxopiperidin-3-yl)benzofuran-5-yl)prop-2-yn-1-yl)-3-methylpicolinamide] | > 80% | 1 to 9.9 nM
Cc1cc(-c2ncc(N(C)c3cc(C4CCOCC4)c4oc(=O)n(C)c4c3)cn2)cnc1C(=O)NCC#Cc1ccc2occ(C3CCC(=O)NC3=O)c2c1 (stereo not shown) [Example A114, N-(3-(3-(2,6-dioxo-piperidin-3-yl)benzofuran-5-yl)prop-2-yn-1-yl)-3-methyl-5-(5-(methyl (3-methyl-2-oxo-7-(tetrahydro-2H-pyran-4-yl)-2,3-dihydrobenzo[d]oxazol-5-yl)amino)pyrimidin-2-yl)picolinamide] | < 20% | > 1000 nM

Now from value to compound:

Dmax | DC50 | SMILES
< 20% | > 1000 nM | CN1C(=O)Cc2cc(-c3cccc4cc(-c5ccc(C(=O)NCC#Cc6ccc7occ(C8CCC(=O)NC8=O)c7c6)nc5)ncc34)ccc21 (stereo not shown) [Example A104, N-(3-(3-(2,6-dioxo-piperidin-3-yl)benzofuran-5-yl)prop-2-yn-1-yl)-5-(8-(1-methyl-2-oxoindolin-5-yl)isoquinolin-3-yl)picolinamide]
> 80% | < 1 nM | Cc1cc(-c2cn(C)c(=O)c3cc(-c4ccc(C(=O)NCC#Cc5ccc6occ(C7CCC(=O)NC7=O)c6c5)nc4)ncc23)cc2c1n(C)c(=O)n2C (stereo not shown) [Example A107, N-(3-(3-(2,6-dioxo-piperidin-3-yl)benzofuran-5-yl)prop-2-yn-1-yl)-5-(6-methyl-5-oxo-8-(1,3,7-trimethyl-2-oxo-2,3-dihydro-1H-benzo[d]imidazol-5-yl)-5,6-dihydro-2,6-naphthyridin-3-yl)picolinamide]
> 80% | 1 to 9.9 nM | CC(C)c1cc(N2CCOc3cc(-c4ccc(C(=O)NCC#Cc5ccc6occ(C7CCC(=O)NC7=O)c6c5)nc4)c(F)cc32)cc2c1n(C)c(=O)n2C (stereo not shown) [Example A110, N-(3-(3-(2,6-dioxo-piperidin-3-yl)benzofuran-5-yl)prop-2-yn-1-yl)-5-(6-fluoro-4-(7-isopropyl-1,3-dimethyl-2-oxo-2,3-dihydro-1H-benzo[d]imidazol-5-yl)-3,4-dihydro-2H-benzo[b][1,4]oxazin-7-yl)picolinamide]
> 80% | 10 to 99 nM | CC(C)c1cc(N2CCOc3cc(-c4ccc(C(=O)NCC#Cc5ccc6occ(C7CCC(=O)NC7=O)c6c5)nc4)c(Cl)cc32)cc2c1n(C)c(=O)n2C (stereo not shown) [Example A113, 5-(6-chloro-4-(7-isopropyl-1,3-dimethyl-2-oxo-2,3-dihydro-1H-benzo[d]imidazol-5-yl)-3,4-dihydro-2H-benzo[b][1,4]oxazin-7-yl)-N-(3-(3-(2,6-dioxopiperidin-3-yl)benzofuran-5-yl)prop-2-yn-1-yl)picolinamide]
